Experimental data: patent US20240294534A1, “IMIDAZOTRIAZINE DERIVATIVES AS IL-17 MODULATORS” (UCB BIOPHARMA SRL, priority 2021, published 2024)

Biological target: T1, IL-17A (Homo sapiens, UniProt Q16552)
T1 sequence (Q16552 24-155): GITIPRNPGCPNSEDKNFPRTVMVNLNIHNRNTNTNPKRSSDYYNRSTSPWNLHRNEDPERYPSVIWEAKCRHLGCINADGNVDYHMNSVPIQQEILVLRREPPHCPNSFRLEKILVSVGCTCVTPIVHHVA
Assay: Inhibition of IL-17A induced IL-6 release from dermal fibroblast cell line (HDF cell line assay)
Type: cell-based
Details: human dermal fibroblasts stimulated with IL-17A (50 pM) + TNF-α (25 pM); IL-6 measured by HTRF; pIC50 = -log10[IC50], IC50 molar
Description: Inhibition of IL-17A Induced IL-6 Release from Dermal Fibroblast Cell Line
The purpose of this assay is to test the neutralising ability to IL-17 proteins, in a human primary cell system. Stimulation of normal human dermal fibroblasts (HDF) with IL-17 alone produces only a very weak signal but in combination with certain other cytokines, such as TNFα, a synergistic effect can be seen in the production of inflammatory cytokines, i.e. IL-6.
HDFs were stimulated with IL-17A (50 pM) in combination with TNF-α (25 pM). The resultant IL-6 response was then measured using a homogenous time-resolved FRET kit from Cisbio. The kit utilises two monoclonal antibodies, one labelled with Eu-Cryptate (Donor) and the second with d2 or XL665 (Acceptor). The intensity of the signal is proportional to the concentration of IL-6 present in the sample (Ratio is calculated by 665/620×104).
The ability of a compound to inhibit IL-17 induced IL-6 release from human dermal fibroblasts is measured in this assay.
HDF cells (Sigma #106-05n) were cultured in complete media (DMEM+10% FCS+2 mM L-glutamine) and maintained in a tissue culture flask using standard techniques. Cells were harvested from the tissue culture flask on the morning of the assay using TrypLE (Invitrogen #12605036). The TrypLE was neutralised using complete medium (45 mL) and the cells were centrifuged at 300×g for 3 minutes. The cells were re-suspended in complete media (5 mL) counted and adjusted to a concentration of 3.125×10^4 cells/mL before being added to the 384 well assay plate (Corning #3701) at 40 μL per well. The cells were left for a minimum of three hours, at 37° C./5% CO2, to adhere to the plate.
Compounds were serially diluted in DMSO before receiving an aqueous dilution into a 384 well dilution plate (Greiner #781281), where 5 μL from the titration plate was transferred to 45 μL of complete media and mixed to give a solution containing 10% DMSO.
Mixtures of TNFα and IL-17 cytokine were prepared in complete media to final concentrations of TNFα 25 pM/IL-17A 50 pM, then 30 μL of the solution was added to a 384 well reagent plate (Greiner #781281).
10 μL from the aqueous dilution plate was transferred to the reagent plate containing 30 μL of the diluted cytokines, to give a 2.5% DMSO solution. The compounds were incubated with the cytokine mixtures for 5 h at 37° C. After the incubation, 10 μL was transferred to the assay plate, to give a 0.5% DMSO solution, then incubated for 18-20 h at 37° C./5% CO2.
From the Cisbio IL-6 FRET kit (Cisbio #62IL6PEB) europium cryptate and Alexa 665 were diluted in reconstitution buffer and mixed 1:1, as per kit insert. To a white low volume 384 well plate (Greiner #784075) were added FRET reagents (10 μL), then supernatant (10 μL) was transferred from the assay plate to Greiner reagent plate. The mixture was incubated at room temperature for 3 h with gentle shaking (<400 rpm) before being read on a Synergy Neo 2 plate reader (Excitation: 330 nm; Emission: […]).

SMILES | IC50 [nM]
Cc1nonc1C(=O)N[C@H](c1cn2ncc([C@@H]3C[C@@](C)(O)CCN3C(=O)C34CC(F)(C3)C4)nc2n1)C1CCC(F)(F)CC1 (single isomer, unassigned) [Example 40] | 79.4
Cc1nonc1C(=O)N[C@H](c1cn2ncc([C@H]3C[C@](C)(O)CCN3C(=O)C34CC(F)(C3)C4)nc2n1)C1CCC(F)(F)CC1 (single isomer, unassigned) [Example 41] | 794
Cc1nonc1C(=O)N[C@H](c1cn2ncc([C@@H]3C[C@H](O)CCN3C(=O)[C@@H]3CCC(F)(F)CO3)nc2n1)C1CCC(F)(F)CC1 (single isomer, unassigned) [Example 42] | 12.6
Cc1nonc1C(=O)N[C@H](c1cn2ncc([C@H]3C[C@@H](O)CCN3C(=O)[C@@H]3CCC(F)(F)CO3)nc2n1)C1CCC(F)(F)CC1 (single isomer, unassigned) [Example 43] | 25.1
Cc1nonc1C(=O)N[C@H](c1cn2ncc([C@@H]3C[C@@H](O)CCN3C(=O)[C@@H]3CCC(F)(F)CO3)nc2n1)C1CCC(F)(F)CC1 (single isomer, unassigned) [Example 44] | 126
Cc1nonc1C(=O)N[C@H](c1cn2ncc([C@H]3C[C@H](O)CCN3C(=O)[C@@H]3CCC(F)(F)CO3)nc2n1)C1CCC(F)(F)CC1 (single isomer, unassigned) [Example 45] | 3.98
Cn1nccc1C(=O)N[C@H](c1cn2ncc([C@@H]3C[C@@](O)(C(F)F)CCN3C(=O)[C@@H]3CCC(F)(F)CO3)nc2n1)C1CCC(F)(F)CC1 (single isomer, unassigned) [Example 46] | 12.6
Cn1nccc1C(=O)N[C@H](c1cn2ncc([C@H]3C[C@](O)(C(F)F)CCN3C(=O)[C@@H]3CCC(F)(F)CO3)nc2n1)C1CCC(F)(F)CC1 (single isomer, unassigned) [Example 47] | 631
CC(C)n1ncnc1C(=O)N[C@H](c1cn2ncc([C@@H]3C[C@@](O)(C(F)F)CCN3C(=O)[C@@H]3CCC(F)(F)CO3)nc2n1)C1CCC(F)(F)CC1 (single isomer, unassigned) [Example 48] | 6.31
CC(C)n1ncnc1C(=O)N[C@H](c1cn2ncc([C@@H]3C[C@@](O)(C(F)F)CCN3C(=O)[C@@H]3CCC(F)(F)CO3)nc2n1)C1CCC(F)(F)CC1 (single isomer, unassigned) [Example 49] | 631
CC(C)n1ncnc1C(=O)N[C@H](c1cn2ncc([C@H]3C[C@@H](O)CCN3C(=O)[C@@H]3CCC(F)(F)CO3)nc2n1)C1CCC(F)(F)CC1 (single isomer, unassigned) [Example 50] | 12.6
CC(C)n1ncnc1C(=O)N[C@H](c1cn2ncc([C@H]3C[C@@H](O)CCN3C(=O)[C@@H]3CCC(F)(F)CO3)nc2n1)C1CCC(F)(F)CC1 (single isomer, unassigned) [Example 51] | 251
CC(C)n1ncnc1C(=O)N[C@H](c1cn2ncc([C@@H]3C[C@](C)(O)CCN3C(=O)[C@@H]3CCC(F)(F)CO3)nc2n1)C1CCC(F)(F)CC1 (single isomer, unassigned) [Example 52] | 7.94
CC(C)n1ncnc1C(=O)N[C@H](c1cn2ncc([C@H]3C[C@@](C)(O)CCN3C(=O)[C@@H]3CCC(F)(F)CO3)nc2n1)C1CCC(F)(F)CC1 (single isomer, unassigned) [Example 53] | 501
O=C(N[C@H](c1cn2ncc(C3CS(=O)(=O)CCN3C(=O)C34CC(F)(C3)C4)nc2n1)[C@H]1CC[C@H](C(F)(F)F)CC1)OCc1ccccc1 (stereo partly drawn) [Example 13, Benzyl N—[(S)-{3-[4-(3-fluorobicyclo[1.1.1]pentane-1-carbonyl)-1,1-dioxo-1,4-thiazinan-3-yl]imidazo[1,2-b][1,2,4]triazin-6-yl}[4-(trifluoromethyl)cyclohexyl]methyl]carbamate] | 50.1
CC(C)n1nccc1C(=O)N[C@H](c1cn2ncc(C3(C(=O)NCC(C)(F)F)CCC(F)(F)CC3)nc2n1)C1CCC(F)(F)CC1 [Example 16, N—[(S)-(4,4-Difluorocyclohexyl){3-[1-(2,2-difluoropropylcarbamoyl)-4,4-difluoro-cyclohexyl]imidazo[1,2-b][1,2,4]triazin-6-yl}methyl]-2-isopropylpyrazole-3-carboxamide] | 12.6
Cc1nonc1C(=O)N[C@H](c1cn2ncc(C3(C(=O)NCC(C)(F)F)CCOCC3)nc2n1)C1CCC(F)(F)CC1 [Example 17, N—[(S)-(4,4-Difluorocyclohexyl){3-[4-(2,2-difluoropropylcarbamoyl)tetrahydropyran-4-yl]imidazo[1,2-b][1,2,4]triazin-6-yl}methyl]-4-methyl-1,2,5-oxadiazole-3-carboxamide] | 12.6
Cc1nonc1C(=O)N[C@H](c1cn2ncc(C3(C(=O)N4CC(F)(F)C(F)(F)C4)CCN(C4COC4)CC3)nc2n1)C1CCC(F)(F)CC1 [Example 54, N—[(S)-(4,4-Difluorocyclohexyl){3-[1-(oxetan-3-yl)-4-(3,3,4,4-tetrafluoropyrrolidine-1-carbonyl)piperidin-4-yl]imidazo[1,2-b][1,2,4]triazin-6-yl}methyl]-4-methyl-1,2,5-oxadiazole-3-carboxamide] | 7.94
Cc1nonc1C(=O)N[C@H](c1cn2ncc(C3(C(=O)N4CC(C(F)(F)F)C4)CCN(C4COC4)CC3)nc2n1)C1CCC(F)(F)CC1 [Example 55, N—[(S)-(4,4-Difluorocyclohexyl)(3-{1-(oxetan-3-yl)-4-[3-(trifluoromethyl)azetidine-1-carbonyl]piperidin-4-yl}imidazo[1,2-b][1,2,4]triazin-6-yl)methyl]-4-methyl-1,2,5-oxadiazole-3-carboxamide] | 63.1
Cc1nonc1C(=O)N[C@H](c1cn2ncc(C3(C(=O)NCC(C)(F)F)CCN(C4COC4)CC3)nc2n1)C1CCC(F)(F)CC1 [Example 56, N—[(S)-(4,4-Difluorocyclohexyl){3-[4-(2,2-difluoropropylcarbamoyl)-1-(oxetan-3-yl)-piperidin-4-yl]imidazo[1,2-b][1,2,4]triazin-6-yl}methyl]-4-methyl-1,2,5-oxadiazole-3-carboxamide] | 15.8
